Experimental data published in the supplement of paper PMC10307832.

Columns and labels:
Assay in all cases: relative viability (nuclei count vs DMSO), 5 days (fraction); higher = more cells survive
[1] = compound: CC1CC(=O)N(C2=CN=C(N=C2N1C3CCCC3)NC4=C(C=C(C=C4)C(=O)NC5CCN(CC5)C)OC)C [NPK76-II-72-1] + Cc1nc(NC(=O)N2CCC[C@H]2C(N)=O)sc1-c1ccnc(C(C)(C)C(F)(F)F)c1 [Alpelisib] (partner 2 µM)
Summary of the method: (§1)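 Medians of duplicate plates are given as relative viability. That measure is the nuclei count in treated wells divided by the count in vehicle wells. Counts were taken on 4× images of lung cancer cell lines in 1536-well plates, 5 days after pin-tool dosing the day after seeding with one drug alone or a fixed anchor-drug dose plus five library-drug doses (not always all listed) in √10 steps.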

NPK76-II-72-1 + Olaparib = compound: CC1CC(=O)N(C2=CN=C(N=C2N1C3CCCC3)NC4=C(C=C(C=C4)C(=O)NC5CCN(CC5)C)OC)C [NPK76-II-72-1] + O=C(c1cc(Cc2n[nH]c(=O)c3ccccc23)ccc1F)N1CCN(C(=O)C2CC2)CC1 [Olaparib] (partner 8 µM)
Summary of the method: as §1

BI-2536 + Bortezomib = compound: CC[C@@H]1C(=O)N(C)c2cnc(Nc3ccc(C(=O)NC4CCN(C)CC4)cc3OC)nc2N1C1CCCC1 [BI-2536] + CC(C)C[C@H](NC(=O)[C@H](Cc1ccccc1)NC(=O)c1cnccn1)B(O)O [Bortezomib] (partner 0.002 µM)
Summary of the method: as §1

BI-2536 + Linsitinib = compound: CC[C@@H]1C(=O)N(C)c2cnc(Nc3ccc(C(=O)NC4CCN(C)CC4)cc3OC)nc2N1C1CCCC1 [BI-2536] + C[C@]1(O)C[C@@H](c2nc(-c3ccc4ccc(-c5ccccc5)nc4c3)c3c(N)nccn32)C1 [Linsitinib] (partner 1 µM)
Summary of the method: as §1

Cell Line | relative viability ([1]; first compound 0.01 µM) | relative viability ([1]; first compound 0.03162 µM) | relative viability ([1]; first compound 0.1 µM) | relative viability ([1]; first compound 0.3162 µM) | relative viability ([1]; first compound 1 µM) | relative viability (NPK76-II-72-1 + Olaparib; first compound 0.01 µM) | relative viability (NPK76-II-72-1 + Olaparib; first compound 0.03162 µM) | relative viability (NPK76-II-72-1 + Olaparib; first compound 0.1 µM) | relative viability (NPK76-II-72-1 + Olaparib; first compound 0.3162 µM) | relative viability (NPK76-II-72-1 + Olaparib; first compound 1 µM) | relative viability (BI-2536 + Bortezomib; first compound 0.01 µM) | relative viability (BI-2536 + Bortezomib; first compound 0.03162 µM) | relative viability (BI-2536 + Bortezomib; first compound 0.1 µM) | relative viability (BI-2536 + Bortezomib; first compound 0.3162 µM) | relative viability (BI-2536 + Bortezomib; first compound 1 µM) | relative viability (BI-2536 + Linsitinib; first compound 0.01 µM) | relative viability (BI-2536 + Linsitinib; first compound 0.03162 µM) | relative viability (BI-2536 + Linsitinib; first compound 0.1 µM) | relative viability (BI-2536 + Linsitinib; first compound 0.3162 µM) | relative viability (BI-2536 + Linsitinib; first compound 1 µM)
HCC-44 | 0.771 | 0.854 | 0.76 | 0.789 | 0.809 | 0.955 | 1 | 0.946 | 0.935 | 0.989 | 0.905 | 0.885 | 0.297 | 0.14 | 0.0751 | 0.672 | 0.72 | 0.602 | 0.12 | 0.0939
HCC-827 | 0.942 | 0.931 | 0.988 | 1.02 | 1.09 | 0.615 | 0.649 | 0.66 | 0.608 | 0.619 | 1.07 | 0.971 | 0.974 | 0.638 | 0.377 | 1.08 | 1.01 | 0.947 | 0.796 | 0.268
NCI-H2347 | 0.992 | 1 | 1.07 | 1.07 | 1.11 | 0.525 | 0.632 | 0.612 | 0.508 | 0.658 | 0.864 | 0.963 | 0.859 | 0.482 | 0.476 | 0.947 | 0.929 | 0.967 | 0.617 | 0.549
PC-14 | 0.943 | 0.956 | 0.946 | 0.916 | 1.04 | 0.295 | 0.377 | 0.384 | 0.267 | 0.32 | 0.851 | 0.835 | 0.665 | 0.0691 | 0.0558 | 0.988 | 0.987 | 0.943 | 0.727 | 0.0823
NCI-H1651 | 0.887 | 1.03 | 0.893 | 0.852 | 1.04 | 0.186 | 0.168 | 0.185 | 0.168 | 0.171 | 0.898 | 0.98 | 0.894 | 0.583 | 0.11 | 0.976 | 1.01 | 0.878 | 0.119 | 0.0863
HARA | 0.783 | 0.975 | 0.822 | 0.523 | 0.983 | 0.888 | 0.756 | 0.76 |  | 0.872 | 1.19 | 1.27 | 0.751 | 0.0898 | 0.0779 | 0.984 | 1.2 | 0.969 | 0.0681 | 0.0677
NCI-H1650 |  |  |  |  |  | 0.661 | 0.751 | 0.721 | 0.82 | 0.784 | 0.198 | 0.195 | 0.18 | 0.18 | 0.171 |  |  |  |  | 
NCI-H1395 | 1.02 | 0.994 | 0.979 | 1.17 | 1.03 | 0.459 | 0.45 | 0.493 | 0.477 | 0.466 |  |  |  |  |  | 0.928 | 0.785 | 0.633 | 0.544 | 0.474
NCI-H1563 | 0.859 | 0.939 | 0.948 | 0.833 | 0.955 |  |  |  |  |  | 0.935 | 0.802 | 0.842 | 0.563 | 0.683 | 1.17 | 1.19 | 1.22 | 0.73 | 0.766
LK-2 | 1 | 1.23 | 1.12 |  | 0.652 | 0.775 | 0.716 | 0.679 | 0.565 | 0.725 |  |  |  |  |  | 0.528 | 0.504 | 0.506 | 0.12 | 0.144
SW 900 |  |  |  |  |  | 0.805 | 0.908 | 0.739 | 0.743 | 0.982 |  |  |  |  |  |  |  |  |  | 
NCI-H1648 |  |  |  |  |  | 0.535 | 0.891 | 0.567 | 0.889 | 1.05 |  |  |  |  |  |  |  |  |  | 
A549 | 0.84 | 0.824 | 0.889 | 0.716 | 0.769 | 0.215 | 0.387 | 0.356 | 0.269 | 0.417 |  |  |  |  |  | 0.582 | 0.536 | 0.63 | 0.294 | 0.0483
ChaGo-K-1 |  |  |  |  |  | 0.417 | 0.401 | 0.392 | 0.418 | 0.448 | 0.905 | 0.852 | 0.469 | 0.301 | 0.281 |  |  |  |  | 
NCI-H358 | 0.876 | 0.827 | 0.884 | 0.508 | 1.01 | 0.58 | 0.665 | 0.598 |  | 0.686 |  |  |  |  |  | 0.723 | 0.676 | 0.402 | 0.161 | 0.137
NCI-H1944 | 0.801 | 0.81 | 0.871 | 0.715 | 0.928 | 0.429 | 0.438 | 0.409 | 0.43 | 0.404 |  |  |  |  |  | 1.35 | 1.27 | 1.17 | 1.02 | 0.283
NCI-H2342 |  |  |  |  |  | 0.393 | 0.377 | 0.457 | 0.43 | 0.535 |  |  |  |  |  |  |  |  |  | 
NCI-H522 |  |  |  |  |  | 0.586 | 0.661 | 0.703 |  | 0.607 |  |  |  |  |  |  |  |  |  | 
SK-MES-1 | 0.835 | 0.847 | 0.868 | 0.907 | 0.883 | 0.646 | 0.787 | 0.794 | 0.746 | 0.728 |  |  |  |  |  | 1.08 | 1.01 | 0.979 | 1.02 | 0.176
NCI-H2170 | 0.772 | 0.839 | 0.777 |  | 0.789 | 0.57 | 0.572 | 0.666 | 0.381 | 0.656 |  |  |  |  |  |  |  |  |  | 
NCI-H1793 | 0.611 | 0.679 | 0.677 | 0.521 | 0.788 |  | 0.985 | 1.02 | 0.589 | 0.808 |  |  |  |  |  | 0.939 | 0.85 | 1.03 | 0.211 | 0.205
